Results published in patent publication US20190248834A1, “ENDOMORPHIN-2, TETRAPEPTIDE DERIVATIVES THEREOF, AND USES THEREOF” (priority 2016, published 2019).
*: point of attachment. Propionyl = CCC(=O)*; NHNH2 = NN*; NHOH = ON*

System: psoriatic arthritis of interphalangeal joints of the fingers
Assay: Example 93: multiple derivatives evaluated for relief of pain associated with psoriatic arthritis, topical
Type: in vivo, human
Details: 0.8% (w/v) in WEP442, topical to both hands
Source text: A subject with extensive plaque psoriasis and psoriatic arthritis of interphalangeal joints of the fingers evaluated multiple tetrapeptide derivatives for comparative effectiveness on relief of their painful fingers. Over the course of 4 weeks, this subject evaluated the analgesic efficacy of ten (10) endomorphin-2 tetrapeptide derivatives in WEP442 at a concentration of 0.8% (w/v) applied topically to both hands, which included all fingers.

Row | Substance | degree of analgesic effectiveness | duration of pain relief | pain relief | time to pain relief [min]
1 | N-Pa-Tyr-Pro-Phe-Phe-NHNH2 (Propionyl-YPFF-NHNH2; SMILES CCC(=O)N[C@@H](Cc1ccc(O)cc1)C(=O)N1CCC[C@H]1C(=O)N[C@@H](Cc1ccccc1)C(=O)N[C@@H](Cc1ccccc1)C(=O)NN) | 4+ | about 7 hours | complete relief of pain | 2 to 3
2 | N-Pa-Tyr-Pro-Phe-Phe-NHOH (Propionyl-YPFF-{NHOH}; SMILES CCC(=O)N[C@@H](Cc1ccc(O)cc1)C(=O)N1CCC[C@H]1C(=O)N[C@@H](Cc1ccccc1)C(=O)N[C@@H](Cc1ccccc1)C(=O)NO) | 4+ | about 7 hours | complete relief of pain | 2 to 3
